The values that follow come from PMC7118906, “Esculetin Inhibits Cancer Cell Glycolysis by Binding Tumor PGK2, GPD2, and GPI” (Frontiers in Pharmacology, 2020).

What all share (type): binding
Experiment [1] addresses T1, phosphoglycerate kinase 2 (PGK2) (Homo sapiens, UniProt P07205).
T1 sequence (P07205 2-417): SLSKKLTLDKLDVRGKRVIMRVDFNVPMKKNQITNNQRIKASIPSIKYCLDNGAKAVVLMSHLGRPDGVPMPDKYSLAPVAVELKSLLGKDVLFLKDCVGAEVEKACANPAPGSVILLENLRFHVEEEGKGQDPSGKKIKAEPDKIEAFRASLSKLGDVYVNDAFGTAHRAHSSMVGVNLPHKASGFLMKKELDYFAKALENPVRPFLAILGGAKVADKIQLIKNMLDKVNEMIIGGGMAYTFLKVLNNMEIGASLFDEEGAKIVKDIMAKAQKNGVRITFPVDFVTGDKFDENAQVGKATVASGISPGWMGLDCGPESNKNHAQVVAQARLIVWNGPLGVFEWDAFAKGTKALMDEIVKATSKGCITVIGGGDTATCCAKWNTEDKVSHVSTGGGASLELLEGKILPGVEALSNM
Briefly: microscale thermophoresis with labeled purchased protein (Abcam ab123166). A general note: Microscale thermophoresis detects binding through changes in fluorescence in a small temperature gradient.

The target of experiment [2] is T2, glycerol-3-phosphate dehydrogenase (GPD2) (Homo sapiens, UniProt P43304).
T2 sequence (P43304 43-727): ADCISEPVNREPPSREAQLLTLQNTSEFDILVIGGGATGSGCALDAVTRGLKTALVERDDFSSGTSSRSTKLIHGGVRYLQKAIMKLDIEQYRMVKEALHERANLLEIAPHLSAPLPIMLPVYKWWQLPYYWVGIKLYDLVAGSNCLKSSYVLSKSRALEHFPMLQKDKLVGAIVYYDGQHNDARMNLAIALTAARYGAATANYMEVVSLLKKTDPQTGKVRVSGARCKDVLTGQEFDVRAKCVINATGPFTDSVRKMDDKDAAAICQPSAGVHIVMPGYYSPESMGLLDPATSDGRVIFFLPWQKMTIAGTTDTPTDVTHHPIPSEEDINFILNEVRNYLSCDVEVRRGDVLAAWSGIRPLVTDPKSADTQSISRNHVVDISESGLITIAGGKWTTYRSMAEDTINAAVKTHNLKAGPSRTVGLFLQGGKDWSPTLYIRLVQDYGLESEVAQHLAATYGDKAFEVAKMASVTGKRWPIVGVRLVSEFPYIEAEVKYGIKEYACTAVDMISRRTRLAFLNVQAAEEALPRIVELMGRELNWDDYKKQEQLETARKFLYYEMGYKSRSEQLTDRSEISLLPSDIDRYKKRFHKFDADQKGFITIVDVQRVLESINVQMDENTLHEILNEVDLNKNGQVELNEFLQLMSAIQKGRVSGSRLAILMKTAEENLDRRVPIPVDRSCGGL
Put plainly: microscale thermophoresis with labeled purchased protein (Abcam ab153790).

In experiment [3] the target is glucose-6-phosphate isomerase (GPI) (Homo sapiens, UniProt P06744). Briefly: microscale thermophoresis with labeled purchased protein (Abcam ab208311).

The term Kd denotes the concentration at which binding is half-saturated. High values mean a looser complex, low ones a tighter complex. With `O=c1ccc2cc(O)c(O)cc2o1` [Esculetin], the Kd in experiment [1] was determined as 161 ± 63.3 nM; in experiment [2], 666 ± 196 nM; in experiment [3], 127 ± 22.4 nM.
